# According to patent US20180251431A1 (VERTEX PHARMACEUTICALS INCORPORATED, priority 2016, published 2018):
# Tests used:
# wild-type (WT) rats = assay: Reduction of blood C26:0 LPC in vivo in wild-type rats; design: species or system rat; details: blood (DBS)
# Procedure: A LC-MS/MS method of analyzing Lysophosphatidylcholine (LPC) in whole blood (dried blood spot card, DBS) and brain tissue samples was developed for measuring the abundance of saturated C16, C18, C20, C22, C24 and C26 LPC in DBS and brain samples. Whole blood was collected with Whatman DMPK-C DBS card at an approximate volume of 20 μL at each time point. Brain tissue was collected at the end point of the study. Samples were prepared and LC-MS/MS analysis was performed as described below.
# For DBS bioanalysis, the DBS card was punched at 3 mm in diameter using a semi-automated DBS card puncher. To each punched spot 200 μL of pure methanol was added. The vial was vortexed at low speed for 20 minutes and centrifuged at 4000 rpm for 20 minutes. The clear supernatant was injected onto LC-MS/MS for analysis. For brain tissue bioanalysis, brain tissue was collected in a tared homogenization tube pre-filled with metal bead and weighted. To each sample vial two parts weight of methanol was added. The sample was homogenized using Precellys-24 at 5000 rpm for 20 seconds with one cycle. A 100 mg aliquot of homogenate was used for analysis. To each sample vial 400 μL of pure methanol was added. The vial was vortexed at low speed for 20 minutes and centrifuged at 4000 rpm for 20 minutes. […]
# The supernatant obtained from each sample was injected into a LC-MS/MS system (Agilent Technologies, Santa Clara, Calif. and Applied Biosystems, Framingham, Mass.) for analysis. […] LPCs were detected by an AB Sciex API-6500 triple quadrupole MS with electrospray ionization in the mode of multiple reaction monitoring. Ions of Q1 were monitored at m/z of 496.6, 524.6, 552.6, 580.6, 608.6 and 636.6 for LPC 16:0, LPC 18:0, LPC 20:0, LPC 22:0, LPC 24:0 and LPC 26:0, respectively. […] C16:0 LPC levels were expressed as a concentration. […]
# Compound 87 was dosed PO (orally by oral gavage) QD at 30, 100, and 300 mg/kg in wild-type (WT) rats (n=5) for 7 days (FIG. 2C). […] DBS cards were stored at 4° C. until they could be analyzed for LPC. DBS samples were prepared and analyzed using LC-MS/MS as described above.
# [1] = Metabolic intrinsic clearance in monkey hepatocytes; assay type: in vitro ADME, cynomolgus monkey; details: cryopreserved hepatocytes in suspension, pH 7.5, 0.5 million cells/mL, incubation for 4 hours
# Procedure: (§1) The metabolic intrinsic clearance (CLint) of Compound 87 was determined in human, monkey, dog, rat, and mouse hepatocytes. Cryopreserved human hepatocytes (Lot Hue50c), monkey hepatocytes (cynomolgus; Lot Cy328), dog hepatocytes (beagle, Lot Db235), rat hepatocytes (Sprague Dawley; NNH), and mouse hepatocytes (CD-1; Lot Mc522) were obtained from ThermoFisher (Paisley, UK). In separate experiments, compound 87 (1 μM) was incubated with hepatocytes from each species (0.5 million cells/mL, suspension) in Dulbecco's Modified Eagle's Medium (DMEM) supplemented with 4-(2-Hydroxyethyl)piperazine-1-ethanesulfonic acid (HEPES, 9 mM) and fructose (2.2 mM) (pH 7.5). Samples were quenched with acetonitrile and analyzed by LC-MS/MS. The mean CLint for Compound 87 in human, monkey, dog, rat, and mouse hepatocytes after incubation for 4 hours was determined to be ≤2.5, ≤2.5, 7.2, 23.6 and 10.7 μL/min/million cells. Based on these date, Compound 87 was low to moderately metabolized in hepatocytes in mouse, rat, dog, monkey, and human, and the rank order of stability at […] was approximately human>monkey>dog>mouse>rat. […] The metabolic stability of Compound 87 was not expected.
# [2] = Metabolic intrinsic clearance in rat hepatocytes; assay type: in vitro ADME; details: Sprague Dawley, cryopreserved hepatocytes in suspension, pH 7.5, 0.5 million cells/mL, incubation for 4 hours
# Procedure: as §1
smiles,measurement,setting,value
"O=C(Nc1ccn(-c2ccnc(F)c2)n1)C1(c2ccccc2F)CC1 [Compound 87, 1-(2-fluorophenyl)-N-[1-(2-fluoro-4-pyridyl)pyrazol-3-yl]cyclopropanecarboxamide]",reduction in C26:0 LPC levels compared to vehicle controls,wild-type (WT) rats; 30 mg/kg PO QD for 7 days,~65%
same,reduction in C26:0 LPC levels compared to vehicle controls,wild-type (WT) rats; 100 mg/kg PO QD for 7 days,about 75%
same,reduction in C26:0 LPC levels compared to vehicle controls,wild-type (WT) rats; 300 mg/kg PO QD for 7 days,about 85%
same,hepatocyte CLint at 1 μM,[1],≤ 2.5 µL/min/1e6 cells
same,hepatocyte CLint at 1 μM,[2],23.6 µL/min/1e6 cells
